Data published in BigSolDB 2.1.

## O=Cc1cc(C=O)cc(C=O)c1
In 1,4-dioxane, 288.15 K
  solubility (mole fraction): 0.0135
In 1,4-dioxane, 293.15 K
  solubility (mole fraction): 0.0164
In 1,4-dioxane, 298.15 K
  solubility (mole fraction): 0.0206
In 1,4-dioxane, 303.15 K
  solubility (mole fraction): 0.0249
In 1,4-dioxane, 308.15 K
  solubility (mole fraction): 0.0288
In 1,4-dioxane, 313.15 K
  solubility (mole fraction): 0.0336
In 1,4-dioxane, 318.15 K
  solubility (mole fraction): 0.0372
In 1,4-dioxane, 323.15 K
  solubility (mole fraction): 0.041
In acetone, 283.15 K
  solubility (mole fraction): 0.01
In acetone, 288.15 K
  solubility (mole fraction): 0.0112
In acetone, 293.15 K
  solubility (mole fraction): 0.0132
In acetone, 298.15 K
  solubility (mole fraction): 0.0152
In acetone, 303.15 K
  solubility (mole fraction): 0.0191
In acetone, 308.15 K
  solubility (mole fraction): 0.023
In acetone, 313.15 K
  solubility (mole fraction): 0.0265
In acetone, 318.15 K
  solubility (mole fraction): 0.0307
In acetone, 323.15 K
  solubility (mole fraction): 0.035
In acetonitrile, 283.15 K
  solubility (mole fraction): 0.00502
In acetonitrile, 288.15 K
  solubility (mole fraction): 0.00616
In acetonitrile, 293.15 K
  solubility (mole fraction): 0.00711
In acetonitrile, 298.15 K
  solubility (mole fraction): 0.00872
In acetonitrile, 303.15 K
  solubility (mole fraction): 0.01
In acetonitrile, 308.15 K
  solubility (mole fraction): 0.0113
In acetonitrile, 313.15 K
  solubility (mole fraction): 0.0137
In acetonitrile, 318.15 K
  solubility (mole fraction): 0.0153
In acetonitrile, 323.15 K
  solubility (mole fraction): 0.0178
In ethanol, 283.15 K
  solubility (mole fraction): 0.0018
In ethanol, 288.15 K
  solubility (mole fraction): 0.00208
In ethanol, 293.15 K
  solubility (mole fraction): 0.00251
In ethanol, 298.15 K
  solubility (mole fraction): 0.00297
In ethanol, 303.15 K
  solubility (mole fraction): 0.00365
In ethanol, 308.15 K
  solubility (mole fraction): 0.00429
In ethanol, 313.15 K
  solubility (mole fraction): 0.0052
In ethanol, 318.15 K
  solubility (mole fraction): 0.00614
In ethanol, 323.15 K
  solubility (mole fraction): 0.00703
In isobutanol, 283.15 K
  solubility (mole fraction): 0.000219
In isobutanol, 288.15 K
  solubility (mole fraction): 0.000308
In isobutanol, 293.15 K
  solubility (mole fraction): 0.000396
In isobutanol, 298.15 K
  solubility (mole fraction): 0.000488
In isobutanol, 303.15 K
  solubility (mole fraction): 0.000917
In isobutanol, 308.15 K
  solubility (mole fraction): 0.00193
In isobutanol, 313.15 K
  solubility (mole fraction): 0.00277
In isobutanol, 318.15 K
  solubility (mole fraction): 0.00387
In isobutanol, 323.15 K
  solubility (mole fraction): 0.00601
In isopropanol, 283.15 K
  solubility (mole fraction): 0.000462
In isopropanol, 288.15 K
  solubility (mole fraction): 0.000512
In isopropanol, 293.15 K
  solubility (mole fraction): 0.000605
In isopropanol, 298.15 K
  solubility (mole fraction): 0.00069
In isopropanol, 303.15 K
  solubility (mole fraction): 0.000803
In isopropanol, 308.15 K
  solubility (mole fraction): 0.00147
In isopropanol, 313.15 K
  solubility (mole fraction): 0.00216
In isopropanol, 318.15 K
  solubility (mole fraction): 0.00291
In isopropanol, 323.15 K
  solubility (mole fraction): 0.00363
In methanol, 283.15 K
  solubility (mole fraction): 0.00351
In methanol, 288.15 K
  solubility (mole fraction): 0.00442
In methanol, 293.15 K
  solubility (mole fraction): 0.00563
In methanol, 298.15 K
  solubility (mole fraction): 0.00691
In methanol, 303.15 K
  solubility (mole fraction): 0.00858
In methanol, 308.15 K
  solubility (mole fraction): 0.0101
In methanol, 313.15 K
  solubility (mole fraction): 0.0122
In methanol, 318.15 K
  solubility (mole fraction): 0.0142
In methanol, 323.15 K
  solubility (mole fraction): 0.0158
In n-butanol, 283.15 K
  solubility (mole fraction): 0.000718
In n-butanol, 288.15 K
  solubility (mole fraction): 0.000765
In n-butanol, 293.15 K
  solubility (mole fraction): 0.000864
In n-butanol, 298.15 K
  solubility (mole fraction): 0.0013
In n-butanol, 303.15 K
  solubility (mole fraction): 0.00181
In n-butanol, 308.15 K
  solubility (mole fraction): 0.00242
In n-butanol, 313.15 K
  solubility (mole fraction): 0.00288
In n-butanol, 318.15 K
  solubility (mole fraction): 0.0037
In n-butanol, 323.15 K
  solubility (mole fraction): 0.00565
In n-pentanol, 283.15 K
  solubility (mole fraction): 0.00134
In n-pentanol, 288.15 K
  solubility (mole fraction): 0.00153
In n-pentanol, 293.15 K
  solubility (mole fraction): 0.00185
In n-pentanol, 298.15 K
  solubility (mole fraction): 0.00216
In n-pentanol, 303.15 K
  solubility (mole fraction): 0.00244
In n-pentanol, 308.15 K
  solubility (mole fraction): 0.00276
In n-pentanol, 313.15 K
  solubility (mole fraction): 0.00341
In n-pentanol, 318.15 K
  solubility (mole fraction): 0.0042
In n-pentanol, 323.15 K
  solubility (mole fraction): 0.00538
In n-propanol, 283.15 K
  solubility (mole fraction): 0.000909
In n-propanol, 288.15 K
  solubility (mole fraction): 0.00104
In n-propanol, 293.15 K
  solubility (mole fraction): 0.00131
In n-propanol, 298.15 K
  solubility (mole fraction): 0.00154
In n-propanol, 303.15 K
  solubility (mole fraction): 0.00194
In n-propanol, 308.15 K
  solubility (mole fraction): 0.00243
In n-propanol, 313.15 K
  solubility (mole fraction): 0.00296
In n-propanol, 318.15 K
  solubility (mole fraction): 0.00347
In n-propanol, 323.15 K
  solubility (mole fraction): 0.00405
In sec-butanol, 283.15 K
  solubility (mole fraction): 0.000294
In sec-butanol, 288.15 K
  solubility (mole fraction): 0.000394
In sec-butanol, 293.15 K
  solubility (mole fraction): 0.000601
In sec-butanol, 298.15 K
  solubility (mole fraction): 0.000789
In sec-butanol, 303.15 K
  solubility (mole fraction): 0.00101
In sec-butanol, 308.15 K
  solubility (mole fraction): 0.00128
In sec-butanol, 313.15 K
  solubility (mole fraction): 0.00155
In sec-butanol, 318.15 K
  solubility (mole fraction): 0.00206
In sec-butanol, 323.15 K
  solubility (mole fraction): 0.00254
In water, 283.15 K
  solubility (mole fraction): 4.1e-05
In water, 288.15 K
  solubility (mole fraction): 6.1e-05
In water, 293.15 K
  solubility (mole fraction): 8.8e-05
In water, 298.15 K
  solubility (mole fraction): 0.000108
In water, 303.15 K
  solubility (mole fraction): 0.000132
In water, 308.15 K
  solubility (mole fraction): 0.000152
In water, 313.15 K
  solubility (mole fraction): 0.00017
In water, 318.15 K
  solubility (mole fraction): 0.000185
In water, 323.15 K
  solubility (mole fraction): 0.000198
